Laboratory results: patent publication US10689377B2 (Mirati Therapeutics, Inc., priority 2017, dated 2020)

These molecules were tested against KRas G12C (Homo sapiens, UniProt P01116, G12C) (assay: Cellular inhibition of KRas G12C measured by Phospho-ERK in NCI-H358 cells). Conditions: pERK(Thr202/Tyr204) normalized with GAPDH, NCI-H358 cells, 3 hours; read-out: IC50.
Format: cell-based
Procedure: Cells were plated in poly-D-Lysine coated 96-well plates at a concentration of 50,000 cells/well and allowed to attach for 8-12 hours. Diluted compounds were then added at a final concentration of 0.5% DMSO. After 3 hours, the medium was removed, 150 μL of 4% formaldehyde was added and the plates were incubated for 20 minutes. The plates were washed with PBS, and permeabilized using 150 μL of ice cold 100% methanol for 10 minutes. Non-specific antibody binding to the plates was blocked using 100 μL Licor Blocking Buffer (Li-Cor Biotechnology, Lincoln Nebr.) for 1 hour at room temperature. Positive control samples and samples lacking cells were parallel processed with test samples as standards.
The amount Phospho-ERK was determined using an antibody specific for the phosphorylated form of ERK and compared to the amount of GAPDH. […] The plates were incubated for 2 hours at room temperature. The plates were washed with PBS+0.05% Tween 20.
Secondary antibodies used to visualize primary antibodies were added as follows: Anti-rabbit-680 diluted 1:1000 and Anti-mouse-800 diluted 1:1000 in Licor Block+0.05% Tween 20 and incubated for 1 hour at room temperature. The plates were washed with PBS+0.05% Tween 20. A 100 μL aliquot of PBS was added to each well and the plates were read on a LICOR AERIUS plate reader.
The pERK(Thr202/Tyr204) signal was normalized with the GAPDH signal and percent of DMSO control values were calculated. IC50 values were generated using a 4 parameter fit of the dose response curve. Key: “A”≥0.0001-≤1 μM; “B”>1 μM and ND=not determined.

KRas G12C, sequence (P01116 1-188 isoform P01116-2 G12C): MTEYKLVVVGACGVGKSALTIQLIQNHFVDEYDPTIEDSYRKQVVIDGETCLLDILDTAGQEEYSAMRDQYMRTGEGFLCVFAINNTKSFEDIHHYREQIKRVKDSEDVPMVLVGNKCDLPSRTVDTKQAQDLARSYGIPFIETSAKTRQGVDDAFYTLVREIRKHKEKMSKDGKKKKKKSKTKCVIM

Compound | IC50
C=CC(=O)N1CCN(c2nc(OC[C@@H]3CCCC(=O)N3)nc3c2CCN(c2cc(O)cc4ccccc24)C3)CC1 (single isomer, unassigned) [Example 61] | > 1000 nM
C=CC(=O)N1CCN(c2nc(OC[C@H]3CCCC(=O)N3)nc3c2CCN(c2cc(O)cc4ccccc24)C3)CC1 (single isomer, unassigned) [Example 62] | > 1000 nM
C=CC(=O)N1CCN(c2nc(OC[C@H](O)CN3CCOCC3)nc3c2CCN(c2cc(O)cc4ccccc24)C3)CC1 (single isomer, unassigned) [Example 215] | > 1000 nM
C=CC(=O)N1CCN(c2nc(OC[C@@H](O)CN3CCOCC3)nc3c2CCN(c2cc(O)cc4ccccc24)C3)CC1 (single isomer, unassigned) [Example 216] | > 1000 nM
C=CC(=O)N1CCN(c2ncnc3c2CCN(c2cc(O)cc4ccccc24)C3)CC1 [Example 1, 1-(4-(7-(3-hydroxynaphthalen-1-yl)-5,6,7,8-tetrahydropyrido[3,4-d]pyrimidin-4-yl)piperazin-1-yl)prop-2-en-1-one] | > 1000 nM
C=CC(=O)N1CCN(c2ncnc3c2CCN(c2cccc4ccccc24)C3)CC1 [Example 3, 1-(4-(7-(naphthalen-1-yl)-5,6,7,8-tetrahydropyrido[3,4-d]pyrimidin-4-yl)piperazin-1-yl)prop-2-en-1-one] | > 1000 nM
C=CC(=O)N1CCN(c2ncnc3c2CCN(c2c(O)cccc2F)C3)CC1 [Example 4, 1-(4-(7-(2-fluoro-6-hydroxyphenyl)-5,6,7,8-tetrahydropyrido[3,4-d]pyrimidin-4-yl)piperazin-1-yl)prop-2-en-1-one] | > 1000 nM
C=CC(=O)N1CCN(c2ncnc3c2CCN(c2cc(O)ccc2F)C3)CC1 [Example 5, 1-(4-(7-(2-fluoro-5-hydroxyphenyl)-5,6,7,8-tetrahydropyrido[3,4-d]pyrimidin-4-yl)piperazin-1-yl)prop-2-en-1-one] | > 1000 nM
C=CC(=O)N1CCN(c2ncnc3c2CC(C)N(c2cc(O)cc4ccccc24)C3)CC1 (centres unmarked) [Example 6, 1-(4-(7-(3-hydroxynaphthalen-1-yl)-6-methyl-5,6,7,8-tetrahydropyrido[3,4-d]pyrimidin-4-yl)piperazin-1-yl)prop-2-en-1-one] | > 1000 nM
C=CC(=O)N1CCN(c2ncnc3c2CCN(c2c(C)ccc4[nH]ncc24)C3)CC1 [Example 7, 1-(4-(7-(5-methyl-1H-indazol-4-yl)-5,6,7,8-tetrahydropyrido[3,4-d]pyrimidin-4-yl)piperazin-1-yl)prop-2-en-1-one] | > 1000 nM
C=CC(=O)N1CCN(c2nc(O[C@@H](C)CN(C)C)nc3c2CCN(c2cc(O)cc4ccccc24)C3)CC1 [Example 8, (S)-1-(4-(2-((1-(dimethylamino)propan-2-yl)oxy)-7-(3-hydroxynaphthalen-1-yl)-5,6,7,8-tetrahydropyrido[3,4-d]pyrimidin-4-yl)piperazin-1-yl)prop-2-en-1-one] | > 1000 nM
C=CC(=O)N1CCN(c2nc(OCCN(C)C)nc3c2CCN(c2cc(O)cc4ccccc24)C3)CC1 [Example 9, 1-(4-(2-(2-(dimethylamino)ethoxy)-7-(3-hydroxynaphthalen-1-yl)-5,6,7,8-tetrahydropyrido[3,4-d]pyrimidin-4-yl)piperazin-1-yl)prop-2-en-1-one] | > 1000 nM
C=CC(=O)N1CCN(c2nc(OCCCN(C)C)nc3c2CCN(c2cc(O)cc4ccccc24)C3)CC1 [Example 10, 1-(4-(2-(3-(dimethylamino)propoxy)-7-(3-hydroxynaphthalen-1-yl)-5,6,7,8-tetrahydropyrido[3,4-d]pyrimidin-4-yl)piperazin-1-yl)prop-2-en-1-one] | > 1000 nM
C=CC(=O)N1CCN(c2nc(OC(C)CN(C)C)nc3c2CCN(c2cc(O)cc4ccccc24)C3)CC1 (centres unmarked) [Example 11, 1-(4-(2-((1-(dimethylamino)propan-2-yl)oxy)-7-(3-hydroxynaphthalen-1-yl)-5,6,7,8-tetrahydropyrido[3,4-d]pyrimidin-4-yl)piperazin-1-yl)prop-2-en-1-one] | 0.1 to 1000 nM
C=CC(=O)N1CCN(c2nc(N3CCN(C)CC3)nc3c2CCN(c2cc(O)cc4ccccc24)C3)CC1 [Example 12, 1-(4-(7-(3-hydroxynaphthalen-1-yl)-2-(4-methylpiperazin-1-yl)-5,6,7,8-tetrahydropyrido[3,4-d]pyrimidin-4-yl)piperazin-1-yl)prop-2-en-1-one] | > 1000 nM
C=CC(=O)N1CCN(c2nc(N3CCC(N(C)C)C3)nc3c2CCN(c2cc(O)cc4ccccc24)C3)CC1 (centres unmarked) [Example 13, 1-(4-(2-(3-(dimethylamino)pyrrolidin-1-yl)-7-(3-hydroxynaphthalen-1-yl)-5,6,7,8-tetrahydropyrido[3,4-d]pyrimidin-4-yl)piperazin-1-yl)prop-2-en-1-one] | > 1000 nM
C=CC(=O)N1CCN(c2nc(OCCN(C)C)nc3c2CCN(c2cc(O)cc4ccccc24)C3)C[C@@H]1C [Example 14] | > 1000 nM
C=CC(=O)N1CCN(c2nc(OCCN(C)C)nc3c2CCN(c2cc(O)cc4ccccc24)C3)C[C@H]1C [Example 15, (R)-1-(4-(2-(2-(dimethylamino)ethoxy)-7-(3-hydroxynaphthalen-1-yl)-5,6,7,8-tetrahydropyrido[3,4-d]pyrimidin-4-yl)-2-methylpiperazin-1-yl)prop-2-en-1-one] | > 1000 nM
C=CC(=O)N1CC2(C1)CN(c1nc(OCCN(C)C)nc3c1CCN(c1cc(O)cc4ccccc14)C3)C2 [Example 16, 1-(6-(2-(2-(dimethylamino)ethoxy)-7-(3-hydroxynaphthalen-1-yl)-5,6,7,8-tetrahydropyrido[3,4-d]pyrimidin-4-yl)-2,6-diazaspiro[3.3]heptan-2-yl)prop-2-en-1-one] | > 1000 nM
C=CC(=O)N1CCN(c2nc(N3CCC(N(C)C)CC3)nc3c2CCN(c2cc(O)cc4ccccc24)C3)CC1 [Example 17, 1-(4-(2-(4-(dimethylamino)piperidin-1-yl)-7-(3-hydroxynaphthalen-1-yl)-5,6,7,8-tetrahydropyrido[3,4-d]pyrimidin-4-yl)piperazin-1-yl)prop-2-en-1-one] | > 1000 nM
C=CC(=O)N1CC2(C1)CN(c1nc(OC(C)CN(C)C)nc3c1CCN(c1cc(O)cc4ccccc14)C3)C2 (centres unmarked) [Example 18, 1-(6-(2-((1-(dimethylamino)propan-2-yl)oxy)-7-(3-hydroxynaphthalen-1-yl)-5,6,7,8-tetrahydropyrido[3,4-d]pyrimidin-4-yl)-2,6-diazaspiro[3.3]heptan-2-yl)prop-2-en-1-one] | > 1000 nM
C=CC(=O)N1CCN(c2nc(O[C@H](C)CN(C)C)nc3c2CCN(c2cc(O)cc4ccccc24)C3)CC1 [Example 19, (R)-1-(4-(2-((1-(dimethylamino)propan-2-yl)oxy)-7-(3-hydroxynaphthalen-1-yl)-5,6,7,8-tetrahydropyrido[3,4-d]pyrimidin-4-yl)piperazin-1-yl)prop-2-en-1-one] | 0.1 to 1000 nM
C=CC(=O)N1CC2(C1)CN(c1nc(OCCCN(C)C)nc3c1CCN(c1cc(O)cc4ccccc14)C3)C2 [Example 20, 1-(6-(2-(3-(dimethylamino)propoxy)-7-(3-hydroxynaphthalen-1-yl)-5,6,7,8-tetrahydropyrido[3,4-d]pyrimidin-4-yl)-2,6-diazaspiro[3.3]heptan-2-yl)prop-2-en-1-one] | > 1000 nM
